Patent publication US20120202818A1, “UREIDOPHENYL SUBSTITUTED TRIAZINE DERIVATIVES AND THEIR THERAPEUTICAL APPLICATIONS” (CALIFORNIA CAPITAL EQUITY, LLC, priority 2009, published 2012)

Legend:
Type in all cases: biochemical
TrkA Kinase = target: T1, TrkA Kinase (Homo sapiens, UniProt P04629); assay: TrkA kinase assay (KinaseProfiler / Kinase HotSpot); details: compound at 1 μM
T1 construct: purchased Millipore (KinaseProfiler service) and/or Reaction Biology Corp. (Kinase HotSpot service)
Description: (§1) This example illustrated c-Src kinase, Aurora-A kinase, Flt3 kinase, Ret kinase and TrkA Kinase Assays of selected Compounds from this invention (referred to Daniele Fancelli et al, J. Med. Chem., 2006, 49 (24), pp 7247-7251). The KinaseProfiler™ Service Assay Protocols (Millipore) were used to test the kinase inhibiting activity of novel compounds from this invention. To do this, the buffer composition was as: 20 mM MOPS, 1 mM EDTA, 0.01% Brij-35, 5% Glycerol, 0.1% β-mercaptoethanol, 1 mg/mL BSA. Test compounds were initially dissolved in DMSO at the desired concentration, then serially diluted to the kinase assay buffer. In a final reaction volume of 25 μL, Aurora-A(h) (5-10 mU) is incubated with 8 mM MOPS pH 7.0, 0.2 mM EDTA, 200 μM LRRASLG (Kemptide), 10 mM MgAcetate and [γ^33P-ATP]. The reaction was initiated by the addition of the MgATP mix. After incubation for 40 minute at room temperature, the reaction was stopped by addition of 5 μL of a 3% phosphoric acid solution. 10 μL of the reaction was then spotted onto a P30 filtermat and washed three times for 5 minutes in 50 mM phosphoric acid and once in methanol prior to drying and scintillation counting. Wells containing substrate but no kinase and wells containing a phosphopeptide control were used to set 0% and 100% phosphorylation value, respectively.
(§2) Also Kinase Hotspot ^SM kinase assay was used to test the compounds for IC50 or % inhibitions (Reaction Biology Corp.). Inhibitor IC50 values were determined by titration of compound at the optimal kinase concentration (Kinase EC50).

Ret kinase = target: T2, Ret kinase (Homo sapiens, UniProt P07949); assay: Ret kinase assay (KinaseProfiler / Kinase HotSpot); details: compound at 1 μM
T2 construct: purchased Millipore (KinaseProfiler service) and/or Reaction Biology Corp. (Kinase HotSpot service)
T2 sequence (P07949 29-1114): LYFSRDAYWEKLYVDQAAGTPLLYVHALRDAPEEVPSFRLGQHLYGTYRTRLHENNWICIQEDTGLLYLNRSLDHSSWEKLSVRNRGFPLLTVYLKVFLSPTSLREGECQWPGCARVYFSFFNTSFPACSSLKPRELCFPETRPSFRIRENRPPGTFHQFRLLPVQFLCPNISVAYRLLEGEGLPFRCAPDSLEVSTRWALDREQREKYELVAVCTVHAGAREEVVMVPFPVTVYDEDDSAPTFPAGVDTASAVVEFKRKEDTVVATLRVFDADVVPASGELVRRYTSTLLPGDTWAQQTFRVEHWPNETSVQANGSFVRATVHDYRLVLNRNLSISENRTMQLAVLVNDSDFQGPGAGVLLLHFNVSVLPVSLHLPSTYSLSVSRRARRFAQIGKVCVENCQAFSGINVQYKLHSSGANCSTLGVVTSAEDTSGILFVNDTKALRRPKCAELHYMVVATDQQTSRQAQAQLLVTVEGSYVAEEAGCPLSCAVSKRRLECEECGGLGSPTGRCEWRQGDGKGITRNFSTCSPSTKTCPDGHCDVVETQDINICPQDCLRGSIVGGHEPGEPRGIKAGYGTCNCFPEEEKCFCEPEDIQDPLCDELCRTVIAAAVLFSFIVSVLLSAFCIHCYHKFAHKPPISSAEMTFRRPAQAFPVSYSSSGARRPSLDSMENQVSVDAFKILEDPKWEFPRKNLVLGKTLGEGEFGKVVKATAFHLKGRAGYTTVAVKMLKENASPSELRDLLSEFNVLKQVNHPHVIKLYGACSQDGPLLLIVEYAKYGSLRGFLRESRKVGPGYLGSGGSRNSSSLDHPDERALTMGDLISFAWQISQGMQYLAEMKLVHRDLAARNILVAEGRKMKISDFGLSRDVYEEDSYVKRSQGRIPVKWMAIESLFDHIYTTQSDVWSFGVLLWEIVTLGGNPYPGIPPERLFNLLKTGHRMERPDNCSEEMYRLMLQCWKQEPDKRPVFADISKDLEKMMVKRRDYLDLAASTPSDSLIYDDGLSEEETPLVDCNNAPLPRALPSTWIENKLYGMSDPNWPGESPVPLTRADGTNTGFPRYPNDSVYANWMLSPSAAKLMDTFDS
Description: as §1, §2

Flt3 kinase = target: T3, Flt3 kinase (Homo sapiens, UniProt P36888); assay: Flt3 kinase assay (KinaseProfiler / Kinase HotSpot); details: compound at 1 μM
T3 construct: purchased Millipore (KinaseProfiler service) and/or Reaction Biology Corp. (Kinase HotSpot service)
T3 sequence (P36888 27-993): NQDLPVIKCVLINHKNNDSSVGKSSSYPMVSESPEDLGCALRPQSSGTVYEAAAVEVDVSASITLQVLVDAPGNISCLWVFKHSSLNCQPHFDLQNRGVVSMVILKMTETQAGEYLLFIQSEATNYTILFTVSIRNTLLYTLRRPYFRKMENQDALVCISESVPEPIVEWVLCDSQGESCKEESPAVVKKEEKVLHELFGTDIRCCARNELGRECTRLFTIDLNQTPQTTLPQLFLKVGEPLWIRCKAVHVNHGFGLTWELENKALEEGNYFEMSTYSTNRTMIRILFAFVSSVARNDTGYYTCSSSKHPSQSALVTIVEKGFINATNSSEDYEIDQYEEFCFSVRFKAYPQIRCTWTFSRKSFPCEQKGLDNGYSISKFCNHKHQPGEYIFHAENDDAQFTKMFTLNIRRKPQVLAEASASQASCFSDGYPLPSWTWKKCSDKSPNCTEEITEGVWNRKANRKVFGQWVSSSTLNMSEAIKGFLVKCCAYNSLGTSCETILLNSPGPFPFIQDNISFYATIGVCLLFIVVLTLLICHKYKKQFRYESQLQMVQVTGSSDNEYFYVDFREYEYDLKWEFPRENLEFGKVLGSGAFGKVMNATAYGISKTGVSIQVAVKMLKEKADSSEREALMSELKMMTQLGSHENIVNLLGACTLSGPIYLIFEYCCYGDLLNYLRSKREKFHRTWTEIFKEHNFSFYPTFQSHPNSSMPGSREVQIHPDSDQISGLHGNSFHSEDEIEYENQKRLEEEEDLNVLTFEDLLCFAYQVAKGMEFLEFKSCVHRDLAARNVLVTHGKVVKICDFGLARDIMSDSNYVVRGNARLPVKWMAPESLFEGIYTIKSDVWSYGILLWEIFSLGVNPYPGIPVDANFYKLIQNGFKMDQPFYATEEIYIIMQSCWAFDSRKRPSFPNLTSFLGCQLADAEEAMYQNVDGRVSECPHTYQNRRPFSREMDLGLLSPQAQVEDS
Description: as §1, §2

c-Src kinase = target: T4, c-Src kinase (Homo sapiens, UniProt P12931); assay: c-Src kinase assay (KinaseProfiler / Kinase HotSpot); details: compound at 1 μM; read-out: % Inhibition @1 μM cSrc
T4 construct: purchased Millipore (KinaseProfiler service) and/or Reaction Biology Corp. (Kinase HotSpot service)
T4 sequence (P12931 whole entry): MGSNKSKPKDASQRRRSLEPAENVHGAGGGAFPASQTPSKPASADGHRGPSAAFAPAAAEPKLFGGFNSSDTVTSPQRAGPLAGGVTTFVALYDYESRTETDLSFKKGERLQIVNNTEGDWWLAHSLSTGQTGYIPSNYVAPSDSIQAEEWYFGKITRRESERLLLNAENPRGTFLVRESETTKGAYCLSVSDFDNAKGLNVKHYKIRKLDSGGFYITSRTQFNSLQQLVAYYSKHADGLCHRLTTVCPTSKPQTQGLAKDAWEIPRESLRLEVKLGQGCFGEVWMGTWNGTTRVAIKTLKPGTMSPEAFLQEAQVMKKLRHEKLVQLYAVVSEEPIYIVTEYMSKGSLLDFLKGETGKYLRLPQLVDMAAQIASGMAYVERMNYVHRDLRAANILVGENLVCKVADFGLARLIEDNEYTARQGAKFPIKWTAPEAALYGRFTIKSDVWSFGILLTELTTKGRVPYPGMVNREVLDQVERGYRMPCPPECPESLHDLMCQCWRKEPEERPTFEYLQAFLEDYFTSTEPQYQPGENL
Description: as §1, §2

Aurora-A kinase = target: T5, Aurora-A kinase (Homo sapiens, UniProt O14965); assay: Aurora-A kinase assay (KinaseProfiler / Kinase HotSpot); details: compound at 1 μM; read-out: % Inhibition @1 μM Auroro-A
T5 construct: purchased Millipore (KinaseProfiler service) and/or Reaction Biology Corp. (Kinase HotSpot service)
T5 sequence (O14965 1-403): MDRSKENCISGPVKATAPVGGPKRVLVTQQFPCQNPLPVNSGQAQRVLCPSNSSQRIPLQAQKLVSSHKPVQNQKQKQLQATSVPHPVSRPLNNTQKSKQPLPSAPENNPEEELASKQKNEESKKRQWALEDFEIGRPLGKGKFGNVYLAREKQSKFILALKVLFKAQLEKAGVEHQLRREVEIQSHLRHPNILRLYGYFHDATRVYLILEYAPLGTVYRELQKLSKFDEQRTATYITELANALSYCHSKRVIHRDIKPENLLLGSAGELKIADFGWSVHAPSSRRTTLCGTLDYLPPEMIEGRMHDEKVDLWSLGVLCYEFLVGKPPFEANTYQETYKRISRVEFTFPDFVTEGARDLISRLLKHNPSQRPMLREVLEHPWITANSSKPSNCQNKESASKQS
Description: as §1, §2

T1 sequence (P04629 33-796): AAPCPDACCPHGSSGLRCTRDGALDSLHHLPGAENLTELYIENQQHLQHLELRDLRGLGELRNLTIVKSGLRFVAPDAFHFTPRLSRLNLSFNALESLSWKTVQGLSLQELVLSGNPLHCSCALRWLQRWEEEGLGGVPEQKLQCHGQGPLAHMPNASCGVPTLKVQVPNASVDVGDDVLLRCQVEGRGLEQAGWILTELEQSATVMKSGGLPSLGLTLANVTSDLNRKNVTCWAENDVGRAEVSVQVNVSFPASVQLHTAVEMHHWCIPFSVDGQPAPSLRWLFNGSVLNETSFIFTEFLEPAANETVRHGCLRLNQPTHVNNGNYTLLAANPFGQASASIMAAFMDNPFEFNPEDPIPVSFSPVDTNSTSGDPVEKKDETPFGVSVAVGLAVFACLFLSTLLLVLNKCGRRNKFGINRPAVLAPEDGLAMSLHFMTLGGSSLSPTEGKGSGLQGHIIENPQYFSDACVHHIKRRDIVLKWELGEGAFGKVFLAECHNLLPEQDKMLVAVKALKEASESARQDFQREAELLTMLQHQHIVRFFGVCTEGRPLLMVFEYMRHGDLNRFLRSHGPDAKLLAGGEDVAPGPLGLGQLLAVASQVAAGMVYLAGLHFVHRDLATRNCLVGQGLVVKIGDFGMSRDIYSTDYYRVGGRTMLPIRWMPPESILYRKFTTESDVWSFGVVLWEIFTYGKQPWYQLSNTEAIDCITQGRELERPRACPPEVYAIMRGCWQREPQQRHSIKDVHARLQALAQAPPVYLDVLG

inhibition at 1 µM (TrkA Kinase) [%] | inhibition at 1 µM (Ret kinase) [%] | inhibition at 1 µM (Flt3 kinase) [%] | inhibition at 1 µM (c-Src kinase) [%] | inhibition at 1 µM (Aurora-A kinase) [%] | Structure (SMILES)
50 to 90 | 50 to 90 | > 90 | 50 to 90 | 50 to 90 | Cc1cnc(Nc2nc(Sc3ccc(N)cc3)nc(N3CCN(C)CC3)n2)s1 [Example 2]
< 50 | < 50 | < 50 | < 50 | > 90 | CCc1nc(Nc2ccc(NC(=O)Nc3ccccc3C)cc2)nc(Nc2cc(C)[nH]n2)n1 [Example 23]
50 to 90 | 50 to 90 | 50 to 90 | < 50 | > 90 | Cc1cnc(Nc2nc(Sc3ccc(NC(=O)Nc4ccccc4)cc3)nc(N3CCN(C)CC3)n2)s1 [Example 4]
< 50 | < 50 | < 50 | < 50 | < 50 | CCc1nc(Nc2ccc(NC(=O)NC(C)C)cc2)nc(Nc2cc(C)[nH]n2)n1 [Example 21]
< 50 | < 50 | < 50 | < 50 | < 50 | CCc1nc(Nc2ccc(NC(=O)Nc3ccccc3)cc2)nc(Nc2ncc(C)s2)n1 [Example 15]
< 50 | < 50 | < 50 | < 50 | < 50 | CCNC(=O)Nc1ccc(Nc2nc(CC)nc(Nc3cc(C)[nH]n3)n2)cc1 [Example 22]
< 50 | < 50 | < 50 | < 50 | < 50 | CCNC(=O)Nc1ccc(Nc2nc(CC)nc(Nc3cc(C)n(C(=O)NCC)n3)n2)cc1 [Example 13]
< 50 | 50 to 90 | 50 to 90 | < 50 | 50 to 90 | CCc1nc(Nc2ccc(NC(=O)Nc3ccc(OC)cc3)cc2)nc(Nc2cc(C)[nH]n2)n1 [Example 24]
50 to 90 | < 50 | 50 to 90 | < 50 | 50 to 90 | Cc1cnc(Nc2nc(Sc3cccc(N)c3)nc(N3CCN(C)CC3)n2)s1 [Example 3]
< 50 | 50 to 90 | < 50 | < 50 | > 90 | CCc1nc(Nc2ccc(NC(=O)Nc3ccc(C(F)(F)F)cc3)cc2)nc(Nc2cc(C)[nH]n2)n1 [Example 12]
< 50 | < 50 | < 50 | < 50 | 50 to 90 | CCc1nc(Nc2ccc(NC(=O)NC(C)C)cc2)nc(Nc2cc(C)n(C(=O)NC(C)C)n2)n1 [Example 14]
< 50 | > 90 | < 50 | < 50 | 50 to 90 | CCc1nc(Nc2ccc(NC(=O)NCc3ccccc3)cc2)nc(Nc2cc(C)[nH]n2)n1 [Example 25]
